From PubChem BioAssay AID2060885 (Molecular Pharmacology Branch, DTP, NCI, 2025)

System: NCI-H23 complex spheroids with HUVEC/MSC, viability
Test: Anticancer human tumor NCI-H23 cell line growth inhibition [RAS];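 also: spheroids exposed to compound for 7 days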;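 as to viability, T/C: 100% = DMSO vehicle control viability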
Settings: for IC50: curve of first compound; for viability, T/C: stronger effect = lower value
Description: RAS pathway inhibitors in Combinations in Complex Spheroids
A high-throughput screen of multi-cell type tumor spheroids was designed to identify active combinations of RAS pathway inhibitors and targeted small molecules. Complex spheroids include a stromal component modeled by human endothelial cells (HUVEC) and fibroblasts modeled by human mesenchymal stem cells (MSCs). The concentration ranges selected for each drug and investigational agent were based upon clinically achievable concentrations if the clinical Cmax of the agent was known.
Compounds. The drugs and investigational agents: abemaciclib (NSC768073), cobimetinib (NSC768068), divarasib (GDC6063, NSC841802), docetaxel (NSC628503), GDC-1971 (RLY-1971, NSC841576), gemcitabine (NSC613327), inavolisib (NSC800729), ipatasertib (NSC767898), KB-0742 (NSC834161), MRTX-1133 (NSC836407), osimertinib (NSC779217), RMC-4630 (NSC839698), RMC-6236 (NSC851965), RMC-6291 (NSC852671), Ro-3306 (NSC812927), sapanisertib (NSC764658), SN-38 (NSC673596), staurosporine (NSC755774), SY5609 (NSC837396), and tovorafenib (DAY101, NSC766906), were obtained from the National Cancer Institute (NCI) Developmental Therapeutics Program Chemical Repository. The FDA-approved anticancer drug set is available from the NCI Developmental Therapeutics Program. […] The stock solutions were prepared in dimethyl sulfoxide (DMSO, Sigma-Aldrich, St. Louis, MO, cat. D2650) at 800-fold the tested concentration and stored at -70 degrees C prior to their use. All drugs and investigational agents were tested over a range starting from a high concentration at or near the clinical Cmax and decreasing in half-log increments. If the clinical Cmax for an agent had not been determined, the highest concentration tested was 10 microM.
Cell Culture. All cells were maintained in an incubator at 37 degrees C and 5% CO2 with 95% humidity. The PDC lines were cultured according to standard operating procedures established by the NCI PDMR. All PDCs were thawed and cultured in Matrigel-coated flasks prepared with a working solution of 1X Ham's F-12 nutrient mix, without supplementation (Invitrogen, Waltham, MA, cat. 11765054), 100 U/mL penicillin-streptomycin (Invitrogen, cat. 15140122), and 2.5% Matrigel (Corning Inc., Corning, NY, cat. 354248) for the first three passages. The 362531-283-R-J2-PDC and 782815-120-R-J1-PDC lines were cultured in 6C/Colon 1B media, which includes advanced DMEM/F-12 (Thermo Fisher Scientific, cat. 12634028), 10 mM HEPES (Thermo Fisher Scientific, cat. 15630080), 1X GlutaMAX supplement (Thermo Fisher Scientific, cat. 35050061), 0.1 mg/mL primocin (InvivoGen, San Diego, CA, cat. ant-pm-2), 10% defined fetal bovine serum, heat inactivated (HyClone Laboratories Inc., Logan, UT, cat. SH30070.03HI), 50% L-WRN conditioned media (ATCC, cat. CRL-3276), 1.25 mM N-Acetyl-L-cysteine (Sigma-Aldrich, cat. A9165), 10 mM nicotinamide (Sigma-Aldrich, cat. N0636), 1X B-27 supplement (Thermo Fisher Scientific, cat. 17504044), 1X N-2 supplement (Thermo Fisher Scientific, cat. 17502048), 50 ng/mL human EGF (Thermo Fisher Scientific, cat. PHG0311), and 10 microM Y-27632 dihydrochloride (Tocris Bioscience, cat. 1254). The K12877-001-R-J1-PDC line was cultured in 6I media, which includes all 6C/Colon 1B media plus 10 ng/mL human FGF-10 (PeproTech, cat. 100-26), 1 ng/mL human FGF-2 (PeproTech, cat. 100-18B), 1 µM prostaglandin E2 (Tocris Bioscience, cat. 2296), […] hydrocortisone (Sigma-Aldrich, cat. H4001), and […] bovine insulin (Sigma-Aldrich, cat. I6634). The K86415-001-R-J1-PDC line was cultured in 6D media, which includes all 6C/Colon 1B media components minus the L-WRN conditioned media. The 485176-168-R4-J1-PDC was cultured in PANC media, which includes all 6C/Colon 1B media plus 100 ng/mL human FGF-10 (PeproTech, cat. 100-26), 500 nM SB-431542 (Selleckchem, cat. S1067), and 10 nM gastrin (Tocris Bioscience, cat. 3006). […]

CCN1CCN(Cc2ccc(Nc3ncc(F)c(-c4cc(F)c5nc(C)n(C(C)C)c5c4)n3)nc2)CC1 + C=CC(=O)N1CCN(c2nc(OCC3CCCN3C)nc3c(F)c(-c4nc(N)cc(C)c4C(F)(F)F)c(Cl)cc23)C(C)C1
IC50 (second compound 0.00316 µM): 15.3 nM | IC50 (second compound 0.01 µM): 3.55 nM | IC50 (second compound 0.0316 µM): < 3.16 nM | IC50 (second compound 0.1 µM): < 3.16 nM | IC50 (second compound 0.316 µM): < 3.16 nM | IC50 (second compound 1 µM): < 3.16 nM | viability, T/C (second compound 0.00316 µM, first compound 0.00316 µM): 55.6% | viability, T/C (second compound 0.00316 µM, first compound 0.01 µM): 58.2% | viability, T/C (second compound 0.00316 µM, first compound 0.0316 µM): 38.2% | viability, T/C (second compound 0.00316 µM, first compound 0.1 µM): 26.9% | viability, T/C (second compound 0.00316 µM, first compound 0.316 µM): 26.1% | viability, T/C (second compound 0.00316 µM, first compound 1 µM): 23.9% | viability, T/C (second compound 0.01 µM, first compound 0.00316 µM): 49.9% | viability, T/C (second compound 0.01 µM, first compound 0.01 µM): 46.7% | viability, T/C (second compound 0.01 µM, first compound 0.0316 µM): 30.1% | viability, T/C (second compound 0.01 µM, first compound 0.1 µM): 23.6% | viability, T/C (second compound 0.01 µM, first compound 0.316 µM): 17.4% | viability, T/C (second compound 0.01 µM, first compound 1 µM): 18.6% | viability, T/C (second compound 0.0316 µM, first compound 0.00316 µM): 44.4% | viability, T/C (second compound 0.0316 µM, first compound 0.01 µM): 37.3% | viability, T/C (second compound 0.0316 µM, first compound 0.0316 µM): 24.1% | viability, T/C (second compound 0.0316 µM, first compound 0.1 µM): 21.8% | viability, T/C (second compound 0.0316 µM, first compound 0.316 µM): 17.2% | viability, T/C (second compound 0.0316 µM, first compound 1 µM): 20.1% | viability, T/C (second compound 0.1 µM, first compound 0.00316 µM): 36.4% | viability, T/C (second compound 0.1 µM, first compound 0.01 µM): 29.3% | viability, T/C (second compound 0.1 µM, first compound 0.0316 µM): 23.2% | viability, T/C (second compound 0.1 µM, first compound 0.1 µM): 19.4% | viability, T/C (second compound 0.1 µM, first compound 0.316 µM): 19.4% | viability, T/C (second compound 0.1 µM, first compound 1 µM): 18.3% | viability, T/C (second compound 0.316 µM, first compound 0.00316 µM): 34.3% | viability, T/C (second compound 0.316 µM, first compound 0.01 µM): 31.7% | viability, T/C (second compound 0.316 µM, first compound 0.0316 µM): 21.9% | viability, T/C (second compound 0.316 µM, first compound 0.1 µM): 20.5% | viability, T/C (second compound 0.316 µM, first compound 0.316 µM): 16.6% | viability, T/C (second compound 0.316 µM, first compound 1 µM): 17.2% | viability, T/C (second compound 1 µM, first compound 0.00316 µM): 28.7% | viability, T/C (second compound 1 µM, first compound 0.01 µM): 33.8% | viability, T/C (second compound 1 µM, first compound 0.0316 µM): 26.2% | viability, T/C (second compound 1 µM, first compound 0.1 µM): 20.1% | viability, T/C (second compound 1 µM, first compound 0.316 µM): 17.8% | viability, T/C (second compound 1 µM, first compound 1 µM): 17.1%
